Measured values: patent publication US20210388002A1, “DIMETHOXYBENZENE COMPOUND ANALOGS, METHODS FOR ANALYZING SAID COMPOUNDS AND STANDARD PRODUCTS OF SAID COMPOUNDS” (TAIHO PHARMACEUTICAL CO., LTD., priority 2018, published 2021)

Assay: solubility in water and organic solvents
Assay type: physicochemical
Conditions: free form; water, highly water-soluble organic solvents, highly fat-soluble organic solvents

solubility: easily soluble
Structure (SMILES): COc1cc(C#Cc2nn([C@H]3CCNC3)c3ncnc(N)c23)cc(OC)c1 [Compound B, (S)-3-((3,5-dimethoxyphenyl)ethynyl)-1-(pyrrolidin-3-yl)-1H-pyrazolo[3,4-d]pyrimidin-4-amine]
